Series [1] in a line: Stability in human liver microsomes assessed as half life at 1 uM in presence of NADPH by LC-MS/MS analysis. The class given is ADME, Microsome. (In general: Liver microsomes are vesicles of endoplasmic reticulum, rich in cytochrome P450 enzymes.)
The nature of series [2]: Stability in mouse liver microsomes assessed as half life at 1 uM in presence of NADPH by LC-MS/MS analysis. The class given is ADME, Microsome. The conditions noted are these: time 60 min.
Series [3] addresses T1, Type-2 angiotensin II receptor (Homo sapiens, UniProt P50052).
T1 sequence (P50052 whole entry): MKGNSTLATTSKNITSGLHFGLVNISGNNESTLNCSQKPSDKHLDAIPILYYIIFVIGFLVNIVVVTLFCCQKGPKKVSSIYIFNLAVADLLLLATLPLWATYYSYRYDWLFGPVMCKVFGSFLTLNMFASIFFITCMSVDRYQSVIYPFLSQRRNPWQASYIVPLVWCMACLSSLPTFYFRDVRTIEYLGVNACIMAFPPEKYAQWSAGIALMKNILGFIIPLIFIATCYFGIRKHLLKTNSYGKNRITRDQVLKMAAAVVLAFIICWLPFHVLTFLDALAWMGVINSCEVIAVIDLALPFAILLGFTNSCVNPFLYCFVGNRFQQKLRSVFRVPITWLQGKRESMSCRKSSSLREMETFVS
Briefly: Displacement of [125I][Sar1 Ile8]-angiotensin II binding to human AT2R expressed in HEK293 cells. The class given is cell-based.

Series [4] is described as follows: Efflux ratio of apparent permeability in human Caco-2 cells at 5 uM measured for 15 to 60 mins by LC-MS/MS analysis. The series is classed as ADME, cell-based. The conditions noted are these: time 15-60 min. Background: Passage across Caco-2 layers is used to estimate intestinal permeability.
For series [5], the target named is T2, Type-1 angiotensin II receptor (Homo sapiens, UniProt P30556).
T2 sequence (P30556 whole entry): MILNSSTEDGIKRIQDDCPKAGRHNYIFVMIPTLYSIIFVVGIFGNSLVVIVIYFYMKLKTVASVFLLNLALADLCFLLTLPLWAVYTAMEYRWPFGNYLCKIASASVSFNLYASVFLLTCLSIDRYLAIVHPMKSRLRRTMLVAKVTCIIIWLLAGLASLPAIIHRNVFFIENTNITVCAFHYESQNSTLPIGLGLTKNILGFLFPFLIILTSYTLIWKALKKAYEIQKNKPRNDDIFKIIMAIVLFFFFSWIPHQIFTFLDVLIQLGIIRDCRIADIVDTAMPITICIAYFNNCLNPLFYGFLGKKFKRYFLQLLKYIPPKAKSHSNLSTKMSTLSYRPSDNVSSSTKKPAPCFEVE
Description: Inhibition of [125I][Sar1 Ile8]-angiotensin II binding to human AT1R expressed in HEK293 cells. The series is classed as cell-based.

Series [6] in a line: Apparent permeability across apical to basal side in human Caco-2 cells at 5 uM measured for 15 to 60 mins by LC-MS/MS analysis. The series is classed as ADME, cell-based. The conditions noted are these: time 15-60 min.
The next series relates to Thoracic aorta. Description: Induction of vasorelaxation in pre-contracted thoracic aorta of FVB/N mouse. The class given is functional, tissue-based.
Series [7] is described as follows: Stability in human hepatocytes assessed as half life at 1 uM by LC-MS/MS analysis. The class given is ADME, cell-based, Hepatocyte.

For orientation: half-life means how long it takes for the measured level to halve. Broadly, the pKi is the Ki on a negative log10 scale, so that one unit is a factor of ten. Low readings indicate a large Ki, high ones a small Ki. In general, efflux ratio refers to a quotient of directional permeabilities that is used to spot active efflux. As usually defined, the Papp A→B is the apparent permeability from the apical to the basolateral side of a cell layer.

Molecules are shown by their SMILES. pKi: −log10 of the molar value.

Regarding `CC(C)Cc1cc(-c2cccc(C(=O)Cn3ccnc3C(C)(C)C)c2)c(S(=O)(=O)Nc2ncc(Br)cn2)s1`, the half-life at 1 µM in series [1] is 4.3 min; in series [2], 11 min. Besides, the pKi in series [3] was 8.82.
On the same counts, the results for `CC(C)Cc1cc(-c2cccc(Cn3ccnc3)c2)c(S(=O)(=O)Nc2nccc(C(N)=O)n2)s1.O=C(O)C(F)(F)F` are 43 min, 36 min and 5.96.
In the same order, the values of `CC(C)Cc1cc(-c2cccc(C(=O)Cn3ccnc3C(C)(C)C)c2)c(S(=O)(=O)Nc2ncc(Cl)cn2)s1.O=C(O)C(F)(F)F` are 6.2 min, 11 min and 8.48.
As to `CC(C)Cc1cc(-c2cccc(C(=O)Cn3ccnc3C(C)(C)C)c2)c(S(=O)(=O)Nc2ncccn2)s1`, in series [4], the efflux ratio at 5 µM worked out at 77. For the same compound, the pKi was under 5.52 in series [5] and 8.31 in series [3]. For the same compound, the apparent permeability from apical to basolateral (Papp A→B) at 5 µM in series [6] turned out to be 4.9 ×10⁻⁶ cm/s. The half-life at 1 µM came to 20 min in series [1], 17 min in series [2] and 77 min in series [7]. Further, the Activity result in the series with Thoracic aorta is “Dose-Dependent Effect”.
`COc1ccc2c(c1OCc1ccccc1)C[C@@H](C(=O)O)N(C(=O)C(c1ccccc1)c1ccccc1)C2` [OLODANRIGAN]: in series [4], the efflux ratio at 5 µM amounted to 32. In addition, the apical-to-basolateral permeability (Papp A→B) at 5 µM in series [6] was 1.8 ×10⁻⁶ cm/s.
On to `CC(C)Cc1cc(-c2cccc(C(=O)Cn3ccnc3C(C)(C)C)c2)c(S(=O)(=O)Nc2ncc(F)cn2)s1.O=C(O)C(F)(F)F`, for which the results for the half-life at 1 µM in series [1] and in series [2] were 16 min and 21 min, respectively. Besides, the negative-log Ki (pKi) in series [3] is 8.77.
With `CC(C)Cc1cc(-c2cccc(Cn3ccnc3)c2)c(S(=O)(=O)Nc2nc3ccccc3s2)s1.O=C(O)C(F)(F)F`, the half-life at 1 µM amounted to 56 min in series [1] and 480 min in series [2]. For the same compound, the negative-log Ki (pKi) in series [3] is 6.10.
For the compound `CC(C)Cc1cc(-c2cccc(Cn3ccnc3)c2)c(S(=O)(=O)Nc2nccs2)s1`, the half-life at 1 µM worked out at 61 min in series [1] and 210 min in series [2]. For the same compound, the pKi in series [3] is 6.19.
For the compound `CC(C)Cc1cc(-c2cccc(C(=O)Cn3ccnc3C(C)(C)C)c2)c(S(=O)(=O)Nc2nccs2)s1`, the results for the half-life at 1 µM in series [1] and in series [2] were 6.7 min and 6.4 min, respectively. In series [3], this compound had a pKi of 7.02.
In the same order, the values of `CC(C)Cc1cc(-c2cccc(C(=O)Cn3ccnc3C(C)(C)C)c2)c(S(=O)(=O)Nc2ncc(C#N)cn2)s1.O=C(O)C(F)(F)F` are 1.2 min, 2.3 min and 8.37.
Consider `CC(C)Cc1cc(-c2cccc(C(=O)Cn3ccnc3C(C)(C)C)c2)c(S(=O)(=O)Nc2ncc(C(F)(F)F)cn2)s1`, for which the half-life at 1 µM came to 4.8 min in series [1] and 12 min in series [2]. The compound further gave a pKi in series [3] of 8.70.
Take `CC(C)Cc1cc(-c2cccc(Cn3ccnc3)c2)c(S(=O)(=O)Nc2nccc(C(F)(F)F)n2)s1.O=C(O)C(F)(F)F`: the half-life at 1 µM in series [1] was 6.7 min; in series [2], 10 min. In series [3], this compound gave a pKi of 6.52.
With `CC(C)Cc1cc(-c2cccc(C(=O)Cn3ccnc3C(C)(C)C)c2)c(S(=O)(=O)Nc2ccc(C(F)(F)F)cn2)s1`, the values for the half-life at 1 µM in series [1] and in series [2] were 2.3 min and 3.6 min, respectively. In series [3], this compound showed a pKi of 7.54.
With `CCCCOC(=O)NS(=O)(=O)c1sc(CC(C)C)cc1-c1cccc(Cn2ccnc2)c1`, the apparent permeability from apical to basolateral (Papp A→B) at 5 µM in series [6] was 3.4 ×10⁻⁶ cm/s.
In the case of `Cc1nc(NS(=O)(=O)c2sc(CC(C)C)cc2-c2cccc(Cn3ccnc3)c2)ncc1Cl`, the half-life at 1 µM in series [1] worked out at 6.6 min; in series [2] it was 23 min. In series [3], this compound had a negative logarithm of the Ki (pKi) of 6.52.
Regarding `CC(C)Cc1cc(-c2cccc(Cn3ccnc3)c2)c(S(=O)(=O)Nc2nccc(C#N)n2)s1.O=C(O)C(F)(F)F`, the half-life at 1 µM in series [1] turned out to be 12 min; in series [2], 37 min. The pKi in series [3] is 7.00.
On the same counts, the results for `CC(C)Cc1cc(-c2cccc(Cn3ccnc3)c2)c(S(=O)(=O)Nc2ncc(Br)cn2)s1` are 14 min, 160 min and 7.38.
For the compound `CC(C)Cc1cc(-c2cccc(C(=O)Cn3ccnc3C(C)(C)C)c2)c(S(=O)(=O)Nc2ccc(C#N)cc2)s1`, the half-life at 1 µM in series [1] was 1.2 min; in series [2] it was 2.3 min. Also, the pKi in series [3] is 6.22.
